Read-outs that look alike come from different tables or passages of the source. Square brackets hold non-standard residues; d marks the D form. Peptide text beside a SMILES is read from it. dPhe(4-Cl) = N[C@H](Cc1ccc(Cl)cc1)C(=O)O; d2Nal = N[C@H](Cc1ccc2ccccc2c1)C(=O)O; Hyp = O=C(O)[C@@H]1C[C@@H](O)CN1; 2Thi = N[C@@H](Cc1cccs1)C(=O)O; d2Thi = N[C@H](Cc1cccs1)C(=O)O
Columns and labels:
[1] = test system: isolated rat uterus; format: cell-based; conditions: for pA2 /RUT: activity class: not quantitated
Description: The bradykinin antagonists were assayed on isolated rat uterus in natural or induced estrus and on guinea pig ileum, according to the commonly accepted assay methods for bradykinin and related kinins as described by Trautschold (Handbook of Expt. Pharmacol. Vol 25, Springer Verlag, pp. 53-55, 1970) for inhibition of the myotropic activity of bradykinin. The inhibition potencies, as determined according to the commonly accepted manner described by Schild for antagonists of biologically active compounds (Br. J. Pharmacol. 2:189, 1947), and expressed as pA2 values are determined on isolated rat uterus (RUT) and isolated guinea pig ileum (GPI). In the assays, a dose-response curve is determined for the reference substance bradykinin. The dose of bradykinin which produced a half maximal contraction of tissue is the ED50 dose. An amount of bradykinin equivalent to twice the ED50 dose is administered to the tissue 30 seconds after the start of incubation of the tissue with a dose of antagonist. Doses of antagonist are increased in this protocol until pre-incubation with a dose of antagonist reduces the contraction in response to the double ED50 dose of bradykinin to response of a single ED50 dose of bradykinin. The pA2 value represents the negative logarithm of the molar concentration of antagonist necessary to reduce the response of a double ED50 dose of bradykinin to that of an ED50 dose. One unit of pA2 value represents an order of magnitude change in potency. For comparison, the negative log of the dose of BK, the dose which causes half maximal contraction of the tissues, is commonly known as the pD2 value. The pD2 value for bradykinin is 7.9 on the rat uterus and 7.4 on the guinea pig ileum.

[2] = test system: rat blood pressure; assay: effects on blood pressure in the anesthetized rat (RBP), intraaortic and intravenous bolus; format: in vivo; set-up: RBP-IA: activity class / RBP-IV: activity class: scale not given here
Description: The in vivo effects of bradykinin antagonists on blood pressure in the anesthetized rat are determined according to the assay described by Roblero, Ryan and Stewart (Res. Commun. Pathol. Pharmacol. 6:207, 1973). The antagonists also produce inhibition of the bradykinin response when injected as a bolus admixture of bradykinin plus antagonist by either the ia or iv route of administration.

[3] = isolated rat uterus, number of tissues in parentheses
[4] = rat blood pressure, intraaortic bolus
[5] = rat blood pressure, intravenous bolus

Structure (SMILES): N=C(N)NCCC[C@H](NC(=O)[C@H](Cc1ccccc1)NC(=O)[C@@H](Cc1ccccc1)NC(=O)[C@H](CO)NC(=O)[C@H](Cc1ccccc1)NC(=O)CNC(=O)[C@@H]1CCCN1C(=O)[C@@H]1CCCN1C(=O)[C@@H](N)CCCNC(=N)N)C(=O)O [Example 1, Arg-Pro-Pro-Gly-Phe-Ser-DPhe-Phe-Arg] (H-RPPGFS[dF]FR-OH)
- pA2 /RUT (antagonist potency) [1, 3]: 5.0

Structure (SMILES): N=C(N)NCCC[C@@H](N)C(=O)N[C@H](Cc1ccc(Cl)cc1)C(=O)N1CCC[C@H]1C(=O)N1CCC[C@H]1C(=O)NCC(=O)N[C@@H](Cc1ccccc1)C(=O)N[C@@H](CO)C(=O)N[C@H](Cc1cccs1)C(=O)N[C@@H](Cc1ccccc1)C(=O)N[C@@H](CCCNC(=N)N)C(=O)O [Example 7, DArg-CDF-Pro-Pro-Gly-Phe-Ser-DThi-Phe-Arg] (H-[dR][dPhe(4-Cl)]PPGFS[d2Thi]FR-OH)
- RBP-IA: activity class [2, 4]: 0
- RBP-IV: activity class [2, 5]: 0
- pA2 /RUT: activity class ([1]; isolated rat uterus): 0

Structure (SMILES): N=C(N)NCCC[C@H](NC(=O)[C@H](Cc1cccs1)NC(=O)[C@@H](Cc1ccccc1)NC(=O)[C@H](CO)NC(=O)[C@H](Cc1cccs1)NC(=O)CNC(=O)[C@@H]1CCCN1C(=O)[C@@H]1CCCN1C(=O)[C@H](N)Cc1ccc2ccccc2c1)C(=O)O [Example 22, DNal-Pro-Pro-Gly-Thi-Ser-DPhe-Thi-Arg] (H-[d2Nal]PPG[2Thi]S[dF][2Thi]R-OH)
- pA2 /RUT (antagonist potency) [1]: 5.6

Structure (SMILES): N=C(N)NCCC[C@@H](N)C(=O)N[C@H](Cc1ccc2ccccc2c1)C(=O)N1CCC[C@H]1C(=O)N1CCC[C@H]1C(=O)NCC(=O)N[C@@H](Cc1cccs1)C(=O)N[C@@H](CO)C(=O)N[C@H](Cc1ccccc1)C(=O)N[C@@H](Cc1cccs1)C(=O)N[C@@H](CCCNC(=N)N)C(=O)O [Example 23, DArg-DNal-Pro-Pro-Gly-Thi-Ser-DPhe-Thi-Arg] (H-[dR][d2Nal]PPG[2Thi]S[dF][2Thi]R-OH)
- pA2 /RUT (antagonist potency) [1]: 5.8

Structure (SMILES): N=C(N)NCCC[C@H](NC(=O)[C@H](Cc1cccs1)NC(=O)[C@@H](Cc1ccccc1)NC(=O)[C@H](CO)NC(=O)[C@H](Cc1cccs1)NC(=O)CNC(=O)[C@@H]1CCCN1C(=O)[C@@H]1CCCN1C(=O)[C@@H](Cc1ccc2ccccc2c1)NC(=O)[C@H](N)Cc1ccc2ccccc2c1)C(=O)O [Example 25, DNal-DNal-Pro-Pro-Gly-Thi-Ser-DPhe-Thi-Arg] (H-[d2Nal][d2Nal]PPG[2Thi]S[dF][2Thi]R-OH)
- pA2 /RUT (antagonist potency) [1, 3]: 5.6

Structure (SMILES): N=C(N)NCCC[C@H](NC(=O)[C@H](Cc1ccccc1)NC(=O)[C@@H](Cc1cccs1)NC(=O)[C@H](CO)NC(=O)[C@H](Cc1ccccc1)NC(=O)CNC(=O)[C@@H]1C[C@@H](O)CN1C(=O)[C@@H]1CCCN1C(=O)[C@H](N)Cc1cccs1)C(=O)O [Example 34, DThi Pro-Hyp-Gly-Phe-Ser-DThi-Phe-Arg] (H-[d2Thi]P[Hyp]GFS[d2Thi]FR-OH)
- pA2 /RUT: activity class ([1]; isolated rat uterus): 0

Structure (SMILES): N=C(N)NCCC[C@H](NC(=O)[C@H](CCCCN)NC(=O)[C@@H](N)CCCCN)C(=O)N1CCC[C@H]1C(=O)N1CCC[C@H]1C(=O)NCC(=O)N[C@@H](Cc1cccs1)C(=O)N[C@@H](CO)C(=O)N[C@H](Cc1ccccc1)C(=O)N[C@@H](Cc1cccs1)C(=O)N[C@H](CCCNC(=N)N)C(=O)O [Example 44, Lys-Lys-Arg-Pro-Pro-Gly-Thi-Ser-DPhe-Thi-DArg] (H-KKRPPG[2Thi]S[dF][2Thi][dR]-OH)
- % DESTR (metabolic breakdown of BK-like agonists in RBP assay) ([2]; rat, in vivo): 0%
- RBP-IA: agonist potency as percent of BK potency ([2]; rat, in vivo): 0.2%
- RBP-IV: agonist potency as percent of BK potency ([2]; rat, in vivo, iv): 14%

Structure (SMILES): N=C(N)NCCC[C@H](NC(=O)[C@H](Cc1cccs1)NC(=O)[C@@H](Cc1ccccc1)NC(=O)[C@H](CO)NC(=O)[C@H](Cc1cccs1)NC(=O)CNC(=O)[C@@H]1CCCN1C(=O)[C@@H]1CCCN1C(=O)[C@@H](N)CCCNC(=N)N)C(N)=O [Example 51, Arg-Pro-Pro-Gly-Thi-Ser-DPhe-Thi-Arg-NH2] (H-RPPG[2Thi]S[dF][2Thi]R-NH2)
- % DESTR (metabolic breakdown of BK-like agonists in RBP assay) ([2]; rat, in vivo): 52%
- RBP-IA: agonist potency as percent of BK potency ([2]; rat, in vivo): 0.05%
- RBP-IV: agonist potency as percent of BK potency ([2]; rat, in vivo, iv): 2%
- pA2 /RUT: agonist potency as percent of BK potency [1]: 0.02%

Structure (SMILES): N=C(N)NCCC[C@H](NC(=O)[C@H](Cc1cccs1)NC(=O)[C@@H](Cc1ccccc1)NC(=O)[C@H](CO)NC(=O)[C@H](Cc1cccs1)NC(=O)CNC(=O)[C@@H]1CCCN1C(=O)[C@@H]1CCCN1C(=O)[C@H](CCCNC(=N)N)NC(=O)[C@H](CCCCN)NC(=O)[C@@H](N)CCCCN)C(N)=O [Example 54, Lys-Lys-Arg-Pro-Pro-Gly-Thi-Ser-DPhe-Thi-Arg-NH2] (H-KKRPPG[2Thi]S[dF][2Thi]R-NH2)
- pA2 /RUT: agonist potency as percent of BK potency [1]: 0.02%

Structure (SMILES): N=C(N)NCCC[C@H](N)C(=O)N1CCC[C@H]1C(=O)N1CCC[C@H]1C(=O)NCC(=O)N[C@@H](Cc1cccs1)C(=O)N[C@@H](CO)C(=O)N[C@H](Cc1ccccc1)C(=O)N[C@@H](Cc1cccs1)C(=O)N[C@H](CCCNC(=N)N)C(N)=O [Example 55, Arg-Pro-Pro-Gly-Thi-Ser-DPhe-Thi-DArg-NH2] (H-RPPG[2Thi]S[dF][2Thi][dR]-NH2)
- % DESTR (metabolic breakdown of BK-like agonists in RBP assay) ([2]; rat, in vivo): 61%
- RBP-IA: agonist potency as percent of BK potency ([2]; rat, in vivo): 0.1%
- RBP-IV: agonist potency as percent of BK potency ([2]; rat, in vivo, iv): 0.9%
- pA2 /RUT: agonist potency as percent of BK potency [1]: 0.01%

Structure (SMILES): N=C(N)NCCC[C@@H](N)C(=O)N[C@@H](CCCNC(=N)N)C(=O)N1CCC[C@H]1C(=O)N1CCC[C@H]1C(=O)NCC(=O)N[C@@H](Cc1cccs1)C(=O)N[C@@H](CO)C(=O)N[C@H](Cc1ccccc1)C(=O)N[C@@H](Cc1cccs1)C(=O)N[C@H](CCCNC(=N)N)C(N)=O [Example 57, DArg-Arg-Pro-Pro-Gly-Thi-Ser-DPhe-Thi-DArf-NH2] (H-[dR]RPPG[2Thi]S[dF][2Thi][dR]-NH2)
- pA2 /RUT: agonist potency as percent of BK potency ([1]; isolated rat uterus): 0.003%

Structure (SMILES): N=C(N)NCCC[C@H](NC(=O)[C@H](CCCCN)NC(=O)[C@@H](N)CCCCN)C(=O)N1CCC[C@H]1C(=O)N1CCC[C@H]1C(=O)NCC(=O)N[C@@H](Cc1cccs1)C(=O)N[C@@H](CO)C(=O)N[C@H](Cc1ccccc1)C(=O)N[C@@H](Cc1cccs1)C(=O)N[C@H](CCCNC(=N)N)C(N)=O [Example 58, Lys-Lys-Arg-Pro-Pro-Gly-Thi-Ser-DPhe-Thi-DArg-NH2] (H-KKRPPG[2Thi]S[dF][2Thi][dR]-NH2)
- % DESTR (metabolic breakdown of BK-like agonists in RBP assay) ([2]; rat, in vivo): 60%
- RBP-IA: agonist potency as percent of BK potency ([2]; rat, in vivo): 0.2%
- RBP-IV: agonist potency as percent of BK potency ([2]; rat, in vivo, iv): 3%
- pA2 /RUT: agonist potency as percent of BK potency [1]: 0.02%

Structure (SMILES): CC[C@H](C)[C@H](NC(=O)[C@H](CCCNC(=N)N)NC(=O)[C@H](Cc1cccs1)NC(=O)[C@@H](Cc1ccccc1)NC(=O)[C@H](CO)NC(=O)[C@H](Cc1cccs1)NC(=O)CNC(=O)[C@@H]1C[C@@H](O)CN1C(=O)[C@@H]1CCCN1C(=O)[C@@H](N)CCCNC(=N)N)C(=O)N[C@@H](Cc1ccc(O)cc1)C(=O)O [Example 67, Arg-Pro-Hyp-Gly-Thi-Ser-DPhe-Thi-Arg-Ile-Tyr] (H-RP[Hyp]G[2Thi]S[dF][2Thi]RIY-OH)
- pA2 /RUT: agonist potency as percent of BK potency ([1]; isolated rat uterus): 0.06%

Structure (SMILES): CC[C@@H](C)[C@@H](NC(=O)[C@H](CCCNC(=N)N)NC(=O)[C@H](Cc1ccccc1)NC(=O)[C@@H](Cc1ccccc1)NC(=O)[C@H](CO)NC(=O)[C@H](Cc1ccccc1)NC(=O)CNC(=O)[C@@H]1CCCN1C(=O)[C@@H]1CCCN1C(=O)[C@@H](N)CCCNC(=N)N)C(=O)N[C@@H](Cc1ccc(O)cc1)C(=O)O [Example 69, Arg-Pro-Pro-Gly-Phe-Ser-DPhe-Phe-Arg-DIle-Tyr] (H-RPPGFS[dF]FR[dI]Y-OH)
- RBP-IA: agonist potency as percent of BK potency [2, 4]: 0.3%
- RBP-IV: agonist potency as percent of BK potency [2, 5]: 2%
- % DESTR (metabolic breakdown of BK-like agonists in RBP assay) ([2]; relative to BK = 100%): 75%

Structure (SMILES): CC[C@@H](C)[C@@H](NC(=O)[C@H](CCCNC(=N)N)NC(=O)[C@H](Cc1cccs1)NC(=O)[C@@H](Cc1ccccc1)NC(=O)[C@H](CO)NC(=O)[C@H](Cc1cccs1)NC(=O)CNC(=O)[C@@H]1CCCN1C(=O)[C@@H]1CCCN1C(=O)[C@@H](N)CCCNC(=N)N)C(=O)N[C@@H](Cc1ccc(O)cc1)C(=O)O [Example 71, Arg-Pro-Pro-Gly-Thi-Ser-DPhe-Thi-Arg-DIle-Tyr] (H-RPPG[2Thi]S[dF][2Thi]R[dI]Y-OH)
- RBP-IA: agonist potency as percent of BK potency [2, 4]: 0.2%
- RBP-IV: agonist potency as percent of BK potency [2, 5]: 2%
- % DESTR (metabolic breakdown of BK-like agonists in RBP assay) ([2]; relative to BK = 100%): 55%

Structure (SMILES): CC[C@@H](C)[C@@H](NC(=O)[C@H](CCCNC(=N)N)NC(=O)[C@H](Cc1cccs1)NC(=O)[C@@H](Cc1ccccc1)NC(=O)[C@H](CO)NC(=O)[C@H](Cc1cccs1)NC(=O)CNC(=O)[C@@H]1C[C@@H](O)CN1C(=O)[C@@H]1CCCN1C(=O)[C@@H](N)CCCNC(=N)N)C(=O)N[C@@H](Cc1ccc(O)cc1)C(=O)O [Example 73, Arg-Pro-Hyp-Gly-Thi-Ser-DPhe-Thi-Arg-DIle-Tyr] (H-RP[Hyp]G[2Thi]S[dF][2Thi]R[dI]Y-OH)
- pA2 /RUT: agonist potency as percent of BK potency ([1]; isolated rat uterus): 0.04%
